# Measured values: ChEMBL document CHEMBL3351490, “The discovery of potent, orally bioavailable pyrimidine-5-carbonitrile-6-alkyl CXCR2 receptor antagonists” (Bioorg Med Chem Lett, 2014)
# Assays:
# [1] = molecular target: T1, C-X-C chemokine receptor type 2 (Homo sapiens, UniProt P25025); experiment: Antagonist activity against human recombinant CXCR2 receptor expressed in CHO cell membranes by SPA based [35S]GTPgammaS binding assay; format: functional
# T1 sequence (P25025 whole entry): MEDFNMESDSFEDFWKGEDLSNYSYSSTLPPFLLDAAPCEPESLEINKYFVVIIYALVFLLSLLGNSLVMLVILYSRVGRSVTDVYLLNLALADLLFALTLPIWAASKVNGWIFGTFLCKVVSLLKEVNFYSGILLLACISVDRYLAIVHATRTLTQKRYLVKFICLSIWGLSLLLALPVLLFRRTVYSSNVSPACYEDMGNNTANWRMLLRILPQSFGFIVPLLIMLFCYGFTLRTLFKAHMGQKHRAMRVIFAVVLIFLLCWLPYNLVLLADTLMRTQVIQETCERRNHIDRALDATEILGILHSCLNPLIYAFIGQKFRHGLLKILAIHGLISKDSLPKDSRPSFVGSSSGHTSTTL
# [2] = molecular target: T2, C-X-C chemokine receptor type 2 (Homo sapiens) (UniProt P25025); experiment: Antagonist activity against human recombinant CXCR2 receptor expressed in CHO cell membranes at 10 uM by SPA based [35S]GTPgammaS binding assay; format: functional
# T2 sequence (whole entry): T1 sequence (P25025 whole entry)
# [3] = Volume of distribution at steady state in iv dosed rat; format: ADME, organism-based; details: in vivo, read-out: Vdss
# [4] = Protein binding in rat plasma; format: ADME, cell-free; details: read-out: PPB
# [5] = molecular target: T1, C-X-C chemokine receptor type 2; experiment: Displacement of [125I]-GRO-alpha from human recombinant CXCR2 receptor expressed in CHO cell membranes
# [6] = Clearance in iv dosed rat; format: ADME, organism-based; details: in vivo
# [7] = Dissociation constant, pKa of the compound; format: physicochemical
# [8] = Oral bioavailability in rat; format: ADME, organism-based; details: in vivo
# [9] = Half life in iv dosed rat; format: ADME, organism-based; details: in vivo
# [10] = Equilibrium solubility at pH 6.8; format: physicochemical; details: buffer
compound,measurement,setting,value
N#Cc1c(O)nc(SCc2cccc(F)c2F)nc1-c1ccccc1,IC50,[1],3700 nM
CC(C)Oc1ccc(-c2nc(SCc3cccc(F)c3F)nc(O)c2C#N)cc1,IC50,[1],1600 nM
same,inhibition,[2],> 50%
N#Cc1c(O)nc(SCc2cccc(F)c2F)nc1C1CCCC1,IC50,[1],4900 nM
same,inhibition,[2],> 50%
CCOC(=O)[C@H]1C[C@@H]1c1nc(SCc2cccc(F)c2F)nc(O)c1C#N (stereo in doubt; form 1),IC50,[1],320 nM
CC(C)(Sc1nc(O)c(C#N)c(C2CC2)n1)c1ccccc1,IC50,[1],6400 nM
N#Cc1c(O)nc(CSc2ccccc2)nc1C1CC1,IC50,[1],> 30000 nM
N#Cc1c(O)nc(SCc2cccc(F)c2F)nc1-c1ccc(Cl)cc1,IC50,[1],7400 nM
same,inhibition,[2],> 50%
N#Cc1c(O)nc(CSc2cccc(F)c2F)nc1C1CC1,IC50,[1],10000 nM
Cc1ccc(-c2nc(SCc3cccc(F)c3F)nc(O)c2C#N)cc1,IC50,[1],1400 nM
same,inhibition,[2],> 50%
CS(=O)(=O)Nc1nc(SCc2cccc(F)c2F)nc(-c2ccccc2)c1C#N,IC50,[1],> 30000 nM
N#Cc1c(O)nc(SCc2cccc(F)c2F)nc1C1CCC1,IC50,[1],1700 nM
same,inhibition,[2],> 50%
N#Cc1c(O)nc(SCc2cccc(F)c2F)nc1-c1ccc(O)cc1,IC50,[1],780 nM
same,inhibition,[2],> 50%
CCOC(=O)[C@H]1C[C@@H]1c1nc(SCc2cccc(F)c2F)nc(O)c1C#N (stereo in doubt; form 2),IC50,[1],1300 nM
CC(C)(C)c1nc(SCc2cccc(F)c2F)nc(O)c1C#N,IC50,[1],3700 nM
same,inhibition,[2],> 50%
CCOC(=O)[C@H]1C[C@@H]1c1nc(SCc2cccc(F)c2F)nc(O)c1C#N (racemic),IC50,[1],1500 nM
N#Cc1c(O)nc(SCc2cccc(F)c2F)nc1C1CC1,Vd,[3],0.2 L/kg
same,IC50,[1],140 nM
same,inhibition,[2],> 50%
same,fraction unbound,[4],< 0.01
same,IC50,[5],40 nM
same,clearance,[6],1.6 mL/min/kg
same,pKa,[7],8.9
same,bioavailability,[8],> 100%
same,half-life,[9],360 min
same,solubility thermodynamic,[10],10 µg/mL
Oc1nc(SCc2cccc(F)c2F)nc(C2CC2)c1Br,IC50,[1],1400 nM
N#Cc1c(O)nc(SCc2c(Cl)cccc2Cl)nc1-c1ccccc1,IC50,[1],> 30000 nM
same,IC50,[5],4300 nM
N#Cc1c(O)nc(SCc2ccccc2)nc1C1CC1,IC50,[1],510 nM
N#Cc1c(O)nc(SCc2cccc(F)c2F)nc1[C@H]1C[C@@H]1CO,IC50,[1],6 nM
CC(C)c1nc(SCc2cccc(F)c2F)nc(O)c1C#N,IC50,[1],900 nM
same,inhibition,[2],> 50%
Cc1nc(SCc2cccc(F)c2F)nc(O)c1C#N,IC50,[1],4300 nM
same,inhibition,[2],> 50%
Cc1cccc(-c2nc(SCc3cccc(F)c3F)nc(O)c2C#N)c1,IC50,[1],4700 nM
same,inhibition,[2],> 50%
N#Cc1c(O)nc(SCc2cccc(F)c2F)nc1[C@H]1C[C@@H]1C(=O)O,IC50,[1],10 nM
COc1ccc(-c2nc(SCc3cccc(F)c3F)nc(O)c2C#N)cc1,IC50,[1],710 nM
same,inhibition,[2],> 50%
N#Cc1c(O)nc(SCc2cccc(F)c2F)nc1[C@H]1C[C@@H]1C(N)=O,IC50,[1],7 nM
Oc1cc(C2CC2)nc(SCc2cccc(F)c2F)n1,IC50,[1],320 nM
CC(Sc1nc(O)c(C#N)c(C2CC2)n1)c1ccccc1 (stereo not drawn),IC50,[1],4800 nM
CC(C)(CO)Nc1nc(SCc2cccc(F)c2F)nc(-c2ccccc2)c1C#N,IC50,[1],> 30000 nM
COc1ccc(-c2nc(SCc3cccc(F)c3F)nc(O)c2C#N)cc1C,IC50,[1],4600 nM
same,inhibition,[2],> 50%
Oc1nc(SCc2cccc(F)c2F)nc(C2CC2)c1I,IC50,[1],3200 nM
